The record followed here is patent US10011571B2, “Preparation method for aromatic heterocyclic compound used as selective JAK3 and/or JAK1 kinase inhibitor and application of aromatic heterocyclic compound” (SHENZHEN CHIPSCREEN BIOSCIENCES, LTD., priority 2014, dated 2018).

For one experiment, the target named is JAK3 (Homo sapiens (Human), UniProt P52333). Put plainly: Z'-LYTE enzymatic activity detection, JAK3. It is filed as biochemical. Particulars: test compound 30 nM; for inhibition at 0.03 µM: read-out: JAK3 % inhibitory rate @30 nM. The procedure: (§1) The basic principle of in vitro enzymatic activity assay is based on the difference between the intensities of fluorescence signals generated at different wavelengths (445 nm and 520 nm) from the phosphorylated substrate and non-phosphorylated substrate, in which the specific fluorescence-labeled substrate is phosphorylated by the kinase. When different test compounds are added, the inhibition of kinase activity is represented as the different degrees of substrate phosphorylation, and thus as the different intensities of fluorescence signal, based on which the inhibitory activity of the compound on the kinase can be calculated. Basic detection principle is illustrated in FIG. 1.
JAK3, sequence (P52333 whole entry): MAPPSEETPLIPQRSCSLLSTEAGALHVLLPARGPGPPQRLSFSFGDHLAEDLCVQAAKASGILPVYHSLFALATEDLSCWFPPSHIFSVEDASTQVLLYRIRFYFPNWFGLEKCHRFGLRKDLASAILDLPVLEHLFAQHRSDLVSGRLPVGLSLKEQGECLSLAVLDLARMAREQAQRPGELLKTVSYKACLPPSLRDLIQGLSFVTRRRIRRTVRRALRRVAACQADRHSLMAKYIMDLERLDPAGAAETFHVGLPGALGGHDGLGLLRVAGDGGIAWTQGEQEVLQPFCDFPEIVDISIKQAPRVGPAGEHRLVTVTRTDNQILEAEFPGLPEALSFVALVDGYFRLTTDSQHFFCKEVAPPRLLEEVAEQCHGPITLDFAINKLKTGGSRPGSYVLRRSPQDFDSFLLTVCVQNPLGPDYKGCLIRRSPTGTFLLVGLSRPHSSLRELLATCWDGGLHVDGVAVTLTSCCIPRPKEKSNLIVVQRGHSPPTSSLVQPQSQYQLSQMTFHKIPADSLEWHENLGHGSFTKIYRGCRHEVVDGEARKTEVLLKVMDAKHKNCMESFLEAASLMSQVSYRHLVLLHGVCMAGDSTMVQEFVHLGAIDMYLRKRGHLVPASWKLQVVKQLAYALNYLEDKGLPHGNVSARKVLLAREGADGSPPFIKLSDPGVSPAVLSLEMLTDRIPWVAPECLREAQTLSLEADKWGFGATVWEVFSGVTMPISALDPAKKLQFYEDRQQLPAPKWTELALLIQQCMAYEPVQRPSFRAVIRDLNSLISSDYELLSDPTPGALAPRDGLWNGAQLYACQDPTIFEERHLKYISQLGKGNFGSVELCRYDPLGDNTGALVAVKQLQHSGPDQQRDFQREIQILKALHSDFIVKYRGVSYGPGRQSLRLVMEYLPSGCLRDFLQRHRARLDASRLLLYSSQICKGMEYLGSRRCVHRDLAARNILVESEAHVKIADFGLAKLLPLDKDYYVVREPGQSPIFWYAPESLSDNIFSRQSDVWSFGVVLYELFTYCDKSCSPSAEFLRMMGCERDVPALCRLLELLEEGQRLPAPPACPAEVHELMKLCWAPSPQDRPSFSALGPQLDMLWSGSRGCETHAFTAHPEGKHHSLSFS
(§2) In an enzymatic inhibitory activity detection, GST-labeled human recombinant JAK kinases, including JAK1/PV4774, JAK2/PV4210, JAK3/PV3855, TYK2/PV4790 and their corresponding specific substrates, including Tyr6 (Z′-LYTE® Kinase Assay Kit-Tyrosine 6 Peptide, JAK1/PV4122), Tyr4 (Z′-LYTE® Kinase Assay Kit-Tyrosine 4 Peptide, JAK2/PV3193), Tyr4 (Z′-LYTE® Kinase Assay Kit-Tyrosine 4 Peptide, JAK3/PV3193), Tyr3 (Z′-LYTE® Kinase Assay Kit-[…], TYK2/PV3192) are used. In all tests, development reagent A (PV3297) was used as the test agent. All materials mentioned above were purchased from Invitrogen.
(§3) (1) Preparation: kinase reaction buffer (working solution) is prepared according to the instruction; a concentration gradient of the test compound is prepared by dilution using the kinase reaction buffer (the highest compound concentration is 10 μM for JAK1, JAK2, and TYK2 detection, and 1 μM for JAK3 detection, respectively).
(§4) (2) 10 μl of reaction system, comprising 2.5 μL test compound, 5 μL kinase reaction buffer and 2.5 μL ATP solution (provided by the kit), is mixed and reaction is performed at room temperature for 1 h.
(§5) (3) Controls, including a solvent control without the test compound, a negative control without ATP and a positive control with the phosphorylated substrate, are tested together with the detection. All tests are carried out in triplicate.
(§6) (4) After the enzymatic reaction, 5 μL pre-formulated development buffer is added, and reaction is performed at room temperature for 1 h. Subsequently, the reaction is terminated by adding 5 μL stop buffer.
(§7) (5) The fluorescence signal in each well is detected by an Ascent Fluoroskan FL reader (Thermo Labsystems) at an excitation wavelength of 400 nm, and emission wavelengths of 445 nm and 520 nm. The proportion of substrate phosphorylation is obtained by reference to the fluorescence signal intensity C445/F520.
(§8) (6) The enzymatic inhibitory rate of the test compound can be calculated based on the following equation: Inhibitory rate (%)=1−the proportion of substrate phosphorylation in the detection well/the proportion of substrate phosphorylation in the solvent control well. The half-inhibitory concentration (IC50) can be calculated using an IC50 calculator based on the inhibitory rates of phosphorylation for the test compounds at different concentration gradients.
(§9) Based on the above method, the compounds described herein are enzymatically evaluated in vitro for JAKs (the concentration of the test compound is 30 nM for JAK3 and JAK2 test, and 300 nM for JAK1 test) using Xeljanz (tofacitinib citrate) as the positive control.

The next experiment has as its target JAK1 (Homo sapiens (Human), UniProt P23458). The experiment is described as follows: Z'-LYTE enzymatic activity detection, JAK1. Particulars: test compound 300 nM; for inhibition at 0.3 µM: read-out: JAK1 % inhibitory rate @300 nM. In kind it is biochemical. The procedure:
as §1, §2, §3, §4, §5, §6, §7, §8, §9

Another experiment concerns the target JAK2 (Homo sapiens (Human), UniProt O60674). The experiment is described as follows: Z'-LYTE enzymatic activity detection, JAK2. It is filed as biochemical. Particulars: test compound 30 nM; for inhibition at 0.03 µM: read-out: JAK2 % inhibitory rate @30 nM. The procedure: as §1, §2, §3, §4, §5, §6, §7, §8, §9
The subject of a further experiment is CTLL-2 cells. The experiment is described as follows: Cell growth activity assay (MTS), CTLL-2 cell model. Particulars: Mus musculus, CTLL-2, 300 nM, 24 h, read-out: CTLL-2 % growth rate @300 nM. In kind it is cell-based, mouse. The source says: (§10) MTS assay is a routine method for cell toxicity detection. The basic principle is based on the capacity of dehydrogenase in the mitochondria of living cells to reduce a novel yellow […] MTS to formazan, so that the amount of living cells is proportional to the amount of formazan product by detecting the absorbance at 490 nm (OD), thereby speculating the amount of living cells according to the OD value, and understanding the capacity of the test compound to inhibit the growth of cells or to kill the cells.
In this experiment, mouse T-cell line CTLL-2 was used. The proliferation and growth of this cell line strongly depend on IL-2, and it is commonly used to evaluate the active titer of exogenous IL-2. By inhibiting the activity of kinase JAK1/3, the proliferation of CTLL-2 can be inhibited under in vitro culture. The activation and proliferation of T-cell is also important pathological characteristics for various immunological diseases. Thus, this model is also pathologically related.
By comparing the change of absorbance generated by the cells treated by the test compounds using MTS assay, the growth inhibitory activity of the test compounds on the model cells can be realized, and thereby potential inhibitory activity of the compounds on JAK1/3 pathway can be evaluated.
(§11) MTS is performed according to routine procedure in a 96-well plate.
The model cells are inoculated into each well of the 96-well plate at an appropriate concentration (about 20,000 cells/well). After 24 h, the test compounds are added at different concentration gradients (the highest concentration of 10 μM). A solvent control (DMSO) and a negative control are also performed at the same time. Each experiment is repeated for 3 times. The cells are detected after cultured for another 24 h.
CTLL-2 is a suspended cell. After incubation, 20 μL pre-formulated mixture of MTS and PMS (in a ratio of 20:1) is directly added to each well. After incubation at 37° C. for 2 h, it is then detected by a microplate reader (490 nm).
The effect of the test compound on cell growth is calculated by comparing the change of OD values between the test well and the solvent control well, after subtracting the background of the negative control. For the test compounds at different concentration gradients, the inhibitory rates on the growth of model cells and their half-growth inhibitory concentrations (GI50) are each calculated.
Based on the above method, cytological evaluation is performed to the compounds described herein (for the detection of CTLL-2 cell, the concentration of the test compound is 300 nM; for the detection of HeLa and HUVEC cell, the concentration of the test compound is […]).

A further experiment has as its system HeLa cells. Put plainly: Cell growth activity assay (MTS), HeLa cell model. In kind it is cell-based, human. On the set-up: activity: dose or concentration left out as unconfirmed. Conditions: Homo sapiens, HeLa, 72 h, read-out: HeLa % growth rate.
Source text: as §10
HeLa cell is a human cervical cancer cell line, and belongs to epithelial tumor cell line; HUVEC is a human umbilical vein endothelial cell, and belongs to primary endothelial cell; both types of cells express all subtypes except for JAK3.
The change of JAK kinase activity has no significant influence on other cell types except for the immune cells, and both cell models mentioned above are mainly used to evaluate whether there are any other kinase targets besides JAK kinases or there are nonselective cell toxicities.
In this experiment, a cultured cell model is incubated with the test compounds at different concentrations for a specific duration. The effect of the treatment by the test compound on the growth of cells is detected using MTS assay.
as §11
The model cells are inoculated into each well of the 96-well plate at an appropriate concentration (about 5000 cells/well). After 24 h, the test compounds are added at different concentration gradients (the highest final concentration is 40 μM). A solvent control (DMSO) and a negative control are also performed at the same time. Each experiment is repeated for 3 times. The cells are detected after cultured for another 72 h.
After all culture medium is aspirated out of the well, 100 μL fresh medium and 20 μL pre-formulated mixture of MTS and PMS (in a ratio of 20:1) are added to each well. After incubation at 37° C. for 2 h, it is then detected by a microplate reader (490 nm).
The cell growth inhibitory rate and GI50 of the test compound are calculated as above.
Based on the above method, cytological evaluation is performed to the compounds described herein (for the detection of CTLL-2 cell, the concentration of the test compound is 300 nM; […]).

JAK1, sequence (P23458 whole entry): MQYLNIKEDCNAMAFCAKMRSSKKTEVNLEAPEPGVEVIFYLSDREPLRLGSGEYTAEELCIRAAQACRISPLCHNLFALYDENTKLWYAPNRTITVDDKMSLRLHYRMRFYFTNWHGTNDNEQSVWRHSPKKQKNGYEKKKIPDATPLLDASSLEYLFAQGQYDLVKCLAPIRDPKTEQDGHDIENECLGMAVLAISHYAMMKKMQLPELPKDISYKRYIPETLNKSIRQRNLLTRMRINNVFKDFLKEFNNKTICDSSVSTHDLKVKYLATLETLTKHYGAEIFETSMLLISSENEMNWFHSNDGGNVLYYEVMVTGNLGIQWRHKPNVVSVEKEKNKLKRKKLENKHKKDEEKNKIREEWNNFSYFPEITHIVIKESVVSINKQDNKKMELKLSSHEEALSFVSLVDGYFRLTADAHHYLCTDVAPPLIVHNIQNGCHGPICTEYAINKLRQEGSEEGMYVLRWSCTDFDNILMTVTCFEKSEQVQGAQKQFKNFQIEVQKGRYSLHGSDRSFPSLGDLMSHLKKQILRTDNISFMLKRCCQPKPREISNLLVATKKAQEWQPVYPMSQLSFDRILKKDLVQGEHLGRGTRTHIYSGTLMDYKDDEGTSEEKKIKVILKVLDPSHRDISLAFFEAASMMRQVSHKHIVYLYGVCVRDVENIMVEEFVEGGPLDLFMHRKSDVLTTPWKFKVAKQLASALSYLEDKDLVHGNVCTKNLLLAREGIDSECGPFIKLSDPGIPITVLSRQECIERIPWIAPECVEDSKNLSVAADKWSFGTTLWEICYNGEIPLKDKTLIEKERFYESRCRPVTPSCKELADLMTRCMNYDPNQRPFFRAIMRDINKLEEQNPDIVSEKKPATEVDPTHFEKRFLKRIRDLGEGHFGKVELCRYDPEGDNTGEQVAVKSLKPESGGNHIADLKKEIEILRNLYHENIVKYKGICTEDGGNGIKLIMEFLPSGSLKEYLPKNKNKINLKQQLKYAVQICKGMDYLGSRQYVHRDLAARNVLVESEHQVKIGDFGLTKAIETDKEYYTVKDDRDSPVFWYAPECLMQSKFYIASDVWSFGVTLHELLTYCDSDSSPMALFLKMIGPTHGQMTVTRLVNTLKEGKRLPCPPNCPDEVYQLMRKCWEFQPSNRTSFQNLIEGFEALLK
JAK2, sequence (O60674 whole entry): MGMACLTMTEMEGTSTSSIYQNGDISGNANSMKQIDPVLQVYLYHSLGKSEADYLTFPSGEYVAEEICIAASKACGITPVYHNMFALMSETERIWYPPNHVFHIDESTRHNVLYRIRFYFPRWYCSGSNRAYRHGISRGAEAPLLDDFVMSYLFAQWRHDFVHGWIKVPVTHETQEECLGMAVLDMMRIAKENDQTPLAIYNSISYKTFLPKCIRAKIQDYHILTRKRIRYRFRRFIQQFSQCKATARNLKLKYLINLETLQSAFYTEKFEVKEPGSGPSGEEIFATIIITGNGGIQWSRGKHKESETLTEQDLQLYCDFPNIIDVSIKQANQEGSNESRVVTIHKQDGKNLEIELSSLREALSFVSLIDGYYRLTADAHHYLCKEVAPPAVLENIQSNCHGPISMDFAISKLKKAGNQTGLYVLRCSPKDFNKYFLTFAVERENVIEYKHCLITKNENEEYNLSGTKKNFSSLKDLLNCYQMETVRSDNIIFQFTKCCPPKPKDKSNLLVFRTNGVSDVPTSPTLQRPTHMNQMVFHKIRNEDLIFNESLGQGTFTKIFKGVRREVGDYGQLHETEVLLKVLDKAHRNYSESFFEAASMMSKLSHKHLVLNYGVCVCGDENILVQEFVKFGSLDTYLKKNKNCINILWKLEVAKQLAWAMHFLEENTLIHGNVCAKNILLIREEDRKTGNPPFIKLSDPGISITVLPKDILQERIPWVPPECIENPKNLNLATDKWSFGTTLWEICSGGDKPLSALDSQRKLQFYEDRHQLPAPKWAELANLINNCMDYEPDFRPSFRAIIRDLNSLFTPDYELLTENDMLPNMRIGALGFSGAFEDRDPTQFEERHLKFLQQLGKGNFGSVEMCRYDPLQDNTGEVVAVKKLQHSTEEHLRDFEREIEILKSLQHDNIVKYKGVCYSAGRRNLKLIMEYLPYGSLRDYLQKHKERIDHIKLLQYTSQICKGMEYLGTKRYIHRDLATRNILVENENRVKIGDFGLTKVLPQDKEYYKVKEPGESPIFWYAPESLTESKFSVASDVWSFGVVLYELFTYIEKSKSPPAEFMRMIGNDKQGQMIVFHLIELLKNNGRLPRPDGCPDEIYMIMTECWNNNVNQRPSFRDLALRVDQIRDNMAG

With `C=CC(=O)N(C)c1cc(Nc2ncc(C)c(NCCCNC(=O)c3ccc(C#N)cc3)n2)ccc1F` [Example 58, 4-cyano-N-(3-(2-(4-fluoro-3-(N-methylacrylamido)phenylamino)-5-methylpyrimidinyl-4-amino)propyl)benzamide], at JAK3, the “JAK3 RV (ratio between the inhibitory rate of the test compound and that of Xeljanz)” value amounted to 0.79; the inhibition at 0.03 µM was 107%. Further, on JAK1, the “JAK1 RV (ratio between the inhibitory rate of the test compound and that of Xeljanz)” value is listed as 0.01; the inhibition at 0.3 µM amounted to 1%. The inhibition at 0.03 µM at JAK2 was determined as 0%. For the same compound, the activity at 0.3 µM with CTLL-2 cells was 54%. Further, the activity in the experiment on HeLa cells amounted to 88%.

On to `C=CC(=O)N(C)c1cc(Nc2ncc(F)c(NCCCNC(=O)c3ccc(C#N)cc3)n2)ccc1F` [Example 60, 4-cyano-N-(3-(5-fluoro-2-(4-fluoro-3-(N-methylacrylamido)phenylamino)pyrimidinyl-4-amino)propyl)benzamide], for which, on JAK3, the “JAK3 RV (ratio between the inhibitory rate of the test compound and that of Xeljanz)” value is listed as 0.79; the inhibition at 0.03 µM worked out at 106%. Also, the inhibition at 0.3 µM on JAK1 came out at 0%. The inhibition at 0.03 µM at JAK2 was found to be 0%. Moreover, the activity at 0.3 µM in the experiment on CTLL-2 cells was 79%. Further, in the experiment on HeLa cells, the activity was 94%.

Regarding `C=CC(=O)N(C)c1cc(Nc2ncc(Cl)c(NCCCNC(=O)Cc3ccc(C#N)cc3)n2)ccc1F` [Example 64, N-(5-(5-chloro-4-(3-(2-(4-cyanophenyl)acetamino)propylamino)pyrimidinyl-2-amino)-2-fluorophenyl)-N-methylacrylamide], on JAK3, the “JAK3 RV (ratio between the inhibitory rate of the test compound and that of Xeljanz)” value amounted to 0.78; the inhibition at 0.03 µM stood at 105%. For the same compound, at JAK1, the “JAK1 RV (ratio between the inhibitory rate of the test compound and that of Xeljanz)” value worked out at 0.13; the inhibition at 0.3 µM amounted to 13%. In addition, on JAK2, the inhibition at 0.03 µM came out at 0%. Moreover, in the experiment on CTLL-2 cells, the activity at 0.3 µM turned out to be 37%. Besides, in the experiment on HeLa cells, the activity was determined as 78%.

Turning to `C=CC(=O)N(C)c1cc(Nc2ncc(Cl)c(NCCCNS(=O)(=O)c3ccc(C#N)cc3)n2)ccc1F` [Example 68, 4-cyano-N-(3-(5-chloro-2-(4-fluoro-3-(N-methylacrylamido)phenylamino)pyrimidinyl-4-amino)propyl)benzenesulfonamide], on JAK3, the “JAK3 RV (ratio between the inhibitory rate of the test compound and that of Xeljanz)” value was 0.76; the inhibition at 0.03 µM came to 103%. Moreover, on JAK1, the “JAK1 RV (ratio between the inhibitory rate of the test compound and that of Xeljanz)” value is listed as 0.15; the inhibition at 0.3 µM amounted to 15%. Besides, at JAK2, the inhibition at 0.03 µM was found to be 0%. In the experiment with CTLL-2 cells, the activity at 0.3 µM turned out to be 69%. In addition, the activity with HeLa cells was 110%.

For `C=CC(=O)N(C)c1cc(Nc2ncc(Cl)c(OCCCNC(=O)c3ccc(C#N)cc3)n2)ccc1F` [Example 71, N-(3-(5-chloro-2-(4-fluoro-3-(N-methylacrylamido)phenylamino)pyrimidinyl-4-oxo)propyl)-4-cyano-benzamide], on JAK3, the “JAK3 RV (ratio between the inhibitory rate of the test compound and that of Xeljanz)” value is 0.70; the inhibition at 0.03 µM amounted to 95%. At JAK1, the “JAK1 RV (ratio between the inhibitory rate of the test compound and that of Xeljanz)” value is 0.70; the inhibition at 0.3 µM amounted to 7%. In addition, on JAK2, the “JAK2 RV (ratio between the inhibitory rate of the test compound and that of Xeljanz)” value is listed as 0.01; the inhibition at 0.03 µM worked out at 1%. The activity at 0.3 µM with CTLL-2 cells is 70%. For the same compound, the activity in the experiment on HeLa cells was determined as 112%.

In the case of `C=CC(=O)N(C)c1cc(Nc2ncc(Cl)c(NCCCNC(=O)c3ccncc3)n2)ccc1F` [Example 75, N-(3-(5-chloro-2-(4-fluoro-3-(N-methylacrylamido)phenylamino)pyrimidinyl-4-amino)propyl)isonicotinamide], at JAK3, the “JAK3 RV (ratio between the inhibitory rate of the test compound and that of Xeljanz)” value turned out to be 0.90; the inhibition at 0.03 µM came out at 121%. Besides, at JAK1, the “JAK1 RV (ratio between the inhibitory rate of the test compound and that of Xeljanz)” value is 0.14; the inhibition at 0.3 µM was 14%. Moreover, the inhibition at 0.03 µM at JAK2 is 0%. In addition, the activity at 0.3 µM in the experiment on CTLL-2 cells came to 49%. Besides, the activity with HeLa cells stood at 102%.

For the compound `C=CC(=O)N(C)c1cc(Nc2ncc(Cl)c(NCCCNC(=O)c3ccc(CC)cc3)n2)ccc1F` [Example 79, N-(3-(5-chloro-2-(4-fluoro-3-(N-methylacrylamido)phenylamino)pyrimidinyl-4-amino)propyl)-4-ethylbenzamide], at JAK3, the “JAK3 RV (ratio between the inhibitory rate of the test compound and that of Xeljanz)” value is reported as 0.96; the inhibition at 0.03 µM is 80%. On JAK1, the “JAK1 RV (ratio between the inhibitory rate of the test compound and that of Xeljanz)” value turned out to be 0.22; the inhibition at 0.3 µM was 19%. At JAK2, the inhibition at 0.03 µM came out at 0%. Moreover, the activity at 0.3 µM in the experiment with CTLL-2 cells turned out to be 3%. Besides, the activity in the experiment with HeLa cells stood at 78%.
